Results: paper PMC13469122, “Structural and mechanistic insights into primer synthesis initiation by DNA primase” (Nature Communications, 2026)

Tests used:
[1] = molecular target: T1, primase (pRN1 primase, residues 40-370) (Saccharolobus islandicus, UniProt Q54324, H145A); test: solid-state hPH NMR (also NHHP, CHHP); format: binding; details: with DNA^CT and ATP^N, 309 K; NTP^S site
T1 construct: Catalytic domain, linker and helix bundle domain, residues 40-370; C-terminal His6 without cleavage site; E. coli BL21(DE3) CodonPlus, pET28c

[2] = molecular target: T2, HBD (helix bundle domain) of pRN1 primase (Saccharolobus islandicus, UniProt Q54324); test: solution NMR; format: binding
T2 construct: Helix bundle domain 261-370 plus linker 256-260; residual GHM (253-255) after TEV cleavage of N-terminal His6; E. coli BL21(DE3) CodonPlus, pET28c

[3] = molecular target: T3, primase (pRN1 primase, residues 40-370) (Saccharolobus islandicus, UniProt Q54324); test: solid-state hPH NMR; format: binding; details: with DNA^CT; triphosphate at NTP^S site
T3 construct: Catalytic domain, linker and helix bundle domain, residues 40-370; C-terminal His6 without cleavage site; E. coli BL21(DE3) CodonPlus, pET28c
T3 sequence (Q54324 entry or part of it): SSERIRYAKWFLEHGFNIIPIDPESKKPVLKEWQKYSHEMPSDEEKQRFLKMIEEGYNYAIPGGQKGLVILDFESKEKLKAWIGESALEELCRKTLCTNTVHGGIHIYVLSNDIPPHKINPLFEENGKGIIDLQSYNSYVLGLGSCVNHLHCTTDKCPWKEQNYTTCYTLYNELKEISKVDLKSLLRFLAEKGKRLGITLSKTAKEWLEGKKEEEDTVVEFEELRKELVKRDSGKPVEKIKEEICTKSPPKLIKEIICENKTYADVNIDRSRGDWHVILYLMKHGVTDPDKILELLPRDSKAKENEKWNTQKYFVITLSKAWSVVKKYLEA

pRN1 primase H145A = molecular target: T4, pRN1 primase H145A (Sulfolobus islandicus plasmid pRN1, UniProt Q54324 40-370, H145A); test: NMR (solid-state hPH, NHHP, CHHP); ATPN + dGTPC; 25 mM sodium phosphate, 50 mM NaCl, 10 mM MgCl2, pH 7.0; ITC and HBD NMR 298 K, primase NMR 313 K; details: protein: recombinant; tags: C-terminal His6, not cleaved; single strand
T4 sequence: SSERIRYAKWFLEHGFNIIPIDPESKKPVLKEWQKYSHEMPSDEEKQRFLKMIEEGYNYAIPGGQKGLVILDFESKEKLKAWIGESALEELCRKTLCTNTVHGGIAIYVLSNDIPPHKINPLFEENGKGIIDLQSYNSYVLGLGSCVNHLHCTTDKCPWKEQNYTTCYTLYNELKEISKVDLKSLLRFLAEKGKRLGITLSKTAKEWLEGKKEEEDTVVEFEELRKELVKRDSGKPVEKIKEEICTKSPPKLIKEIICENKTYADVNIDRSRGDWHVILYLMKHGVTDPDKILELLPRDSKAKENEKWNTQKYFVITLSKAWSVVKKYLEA

[4] = molecular target: T5, pRN1 primase helix bundle domain (HBD) (Sulfolobus islandicus plasmid pRN1, UniProt Q54324 256-370); test: ITC; 1 mM dGTP, 10 mM Mg2+; Kd not printed in the material; 25 mM sodium phosphate, 50 mM NaCl, 10 mM MgCl2, pH 7.0; ITC and HBD NMR 298 K, primase NMR 313 K; details: protein: recombinant; tags: non-native GHM (numbered 253-255) left after TEV cleavage of N-terminal His6; single strand
T5 sequence: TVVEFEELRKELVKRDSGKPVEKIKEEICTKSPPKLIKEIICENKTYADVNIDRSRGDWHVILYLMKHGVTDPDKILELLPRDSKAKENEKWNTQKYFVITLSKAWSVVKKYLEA

Molecule: Nc1nc2c(ncn2[C@H]2C[C@H](O)[C@@H](COP(=O)(O)OP(=O)(O)CP(=O)(O)O)O2)c(=O)[nH]1 [dGTP^C]
- solid-state hPH NMR (also NHHP, CHHP) [1]: ATP^N binds at the NTP^W site, while dGTP^C occupies the NTP^S site

Molecule: Nc1ncnc2c1ncn2[C@@H]1O[C@H](COP(=O)(O)OP(=O)(O)OP(=O)(O)O)[C@@H](O)[C@H]1O [ATP]
- solution NMR ([2]; with DNA^CT and dGTP, NTP^W site (displaced from NTP^S site by dGTP)): the second ATP remains bound at the NTP^W site without base-pairing with T2

Molecule: Nc1nc2c(ncn2[C@H]2C[C@H](O)[C@@H](COP(=O)(O)O[C@H]3[C@@H](O)[C@H](n4cnc5c(N)ncnc54)O[C@@H]3COP(=O)(O)OP(=O)(O)NP(=O)(O)O)O2)c(=O)[nH]1
- solid-state hPH NMR [3]: the solid-state hPH NMR spectrum of the primase-DNA^CT-pNHppApG complex

Molecule: Nc1nc2c(ncn2[C@H]2C[C@H](O)[C@@H](COP(=O)(O)OP(=O)(O)OP(=O)(O)O)O2)c(=O)[nH]1 [dGTP]
- solution NMR ([2]; with DNA^CT and ATP, NTP^S site): dGTP displaces ATP at the NTP^S site to base-pair with C1

Molecule: CTGTGCTCA (ssDNA) [DNACT]
- binding result (pRN1 primase H145A): binds
- binding signal [4]: ~5 fold tighter GTG recognition than with ATP
